We go through 23 compounds from patent publication US11713339B2, “Macrocyclization of peptidomimetics” (UNIVERSITY OF WARWICK, priority 2018, dated 2023).

Several values for one entry are separate records, joined by “and”; a condition that tells them apart may be missing. Identical values can stand only once. Like-named read-outs stand apart in the source and are kept apart here.

The target of data set [1] is T1, porcine Aminopeptidase N (APN) (Sus scrofa, UniProt P15145).
T1 construct: microsomal aminopeptidase from porcine kidney (pAPN, Sigma Aldrich) (18 units/mg protein); purchased Sigma Aldrich; host or cells: porcine kidney (tissue-derived enzyme preparation)
T1 sequence (P15145 1-963): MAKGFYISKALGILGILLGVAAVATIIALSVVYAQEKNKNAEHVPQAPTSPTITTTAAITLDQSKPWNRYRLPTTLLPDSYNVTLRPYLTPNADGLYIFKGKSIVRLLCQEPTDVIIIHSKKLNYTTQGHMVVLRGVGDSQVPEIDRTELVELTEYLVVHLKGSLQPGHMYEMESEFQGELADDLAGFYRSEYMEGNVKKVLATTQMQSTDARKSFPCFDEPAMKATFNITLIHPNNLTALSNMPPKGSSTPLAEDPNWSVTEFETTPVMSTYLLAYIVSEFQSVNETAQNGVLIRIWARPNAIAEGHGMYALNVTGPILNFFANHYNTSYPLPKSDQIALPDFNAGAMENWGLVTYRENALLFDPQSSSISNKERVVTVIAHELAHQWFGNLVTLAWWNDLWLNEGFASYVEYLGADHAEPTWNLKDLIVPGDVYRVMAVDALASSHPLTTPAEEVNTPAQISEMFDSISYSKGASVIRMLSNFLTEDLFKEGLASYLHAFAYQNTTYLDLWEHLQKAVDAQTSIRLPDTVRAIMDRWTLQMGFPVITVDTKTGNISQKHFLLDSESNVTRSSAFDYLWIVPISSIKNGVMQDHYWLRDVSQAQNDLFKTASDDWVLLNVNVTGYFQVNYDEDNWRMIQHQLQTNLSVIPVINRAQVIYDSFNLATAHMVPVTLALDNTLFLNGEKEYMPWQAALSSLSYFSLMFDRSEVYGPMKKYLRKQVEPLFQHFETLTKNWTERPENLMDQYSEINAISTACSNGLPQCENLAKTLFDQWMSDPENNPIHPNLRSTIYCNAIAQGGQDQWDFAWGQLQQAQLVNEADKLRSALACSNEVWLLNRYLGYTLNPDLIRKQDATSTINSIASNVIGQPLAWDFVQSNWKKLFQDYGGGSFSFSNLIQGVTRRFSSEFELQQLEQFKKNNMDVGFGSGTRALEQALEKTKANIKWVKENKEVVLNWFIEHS
Put plainly: in vitro inhibition assay of aminopeptidase N (spectrophotometric, L-leucine-p-nitroanilide substrate). The format is biochemical. The following applies: microsomal aminopeptidase from porcine kidney (pAPN), L-leucine-p-nitroanilide 250 μM, PBS pH 7.2, 37° C., 1 hour, UV 405 nm.
Description: IC50 values were calculated by following the formation of p-nitroaniline. Formation of p-nitroaniline was monitored by measurement of the UV absorption at 405 nm on a Hidex Sense plate reader. The assay was performed in a 96-well plate in PBS buffer (pH 7.2, 1.47 mM KH2PO4, 7.8 mM Na2HPO4, 137 mM NaCl, 2.7 mM KCl, 1.8 mM CaCl2, 1.8 mM MgCl2) at 37° C. with a total volume of 100 μL. […] The peptides were incubated with the enzyme (1.0 μg/mL) for 5 min. before a solution of L-leucine-p-nitroanilide was added with a final concentration of 250 μM. The plate was incubated at 37° C. for 1 hour before the p-nitroaniline was detected. […] For the calculation of the IC50 values log of the concentration was plotted against the UV absorption in GraphPad Prism 5 using nonlinear regression (variable slope (four parameters) with interpolation) for analysis.

The conditions of data set [2]: amide bond, DMF, 25.0 °C.
For data set [3] the following is noted: 25.0 °C.
For data set [4] the following is noted: 25.0 °C. The source holds these as a separate data set.
[5] abbreviates: amide bond, 12-membered ring, DEPBT/DIPEA, DMF, 1.0 mM.

In turn, `N=C(N)NCCC[C@@H]1NC2(CNC(=O)[C@H](CC(N)=O)NC(=O)[C@@H](N)CSSC[C@@H](C(=O)O)NC1=O)COC2` [Compound 12, Cyclo(H-CVs-Asn-GOx-Arg-CVs-OH)] returned an IC50 in data set [1] of 175 µM. With `CC(C)C[C@@H]1NC(=O)[C@H](Cc2ccc(O)cc2)NC(=O)[C@H](C)NC2(CNC(=O)[C@H](C)NC1=O)COC2` [Cyclo(Ala-GOx-Ala-Tyr-Leu)], the ring closure, yield of all isomers in data set [2] (from CC(C)C[C@H](NC(=O)[C@H](Cc1ccc(O)cc1)NC(=O)[C@H](C)NC1(CNC(=O)[C@H](C)N)COC1)C(=O)O, DEPBT/DIPEA, 1.0 mM, 24.0 h) came out at 54%. Consider `CC(C)C[C@@H]1NC(=O)[C@H](Cc2ccc(O)cc2)NC(=O)[C@H](C)NC(=O)CNC(=O)[C@H](C)NC1=O` [Cyclo(Ala-Gly-Ala-Tyr-Leu)], for which the ring closure, yield of all isomers in data set [2] (from CC(C)C[C@H](NC(=O)[C@H](Cc1ccc(O)cc1)NC(=O)[C@H](C)NC(=O)CNC(=O)[C@H](C)N)C(=O)O, DEPBT/DIPEA, 1.0 mM, 24.0 h) is 42%.

`CC(C)C[C@@H]1NC(=O)[C@H](Cc2cn(C(=O)OC(C)(C)C)c3ccccc23)NC(=O)CNC2(CNC1=O)COC2` [Cyclo(Leu-GOx-Gly-Trp(Boc))] yielded a ring closure, yield of all isomers in data set [2] (from CC(C)C[C@H](N)C(=O)NCC1(NCC(=O)N[C@@H](Cc2cn(C(=O)OC(C)(C)C)c3ccccc23)C(=O)O)COC1, DEPBT, 1.0 mM, 64.0 h, 6 steps) of 39%.

In turn, `CC(C)C[C@@H]1NC(=O)[C@H](Cc2c[nH]c3ccccc23)NC(=O)CNC2(COC2)[C@H](C)NC1=O` [Cyclo(Trp-Leu-AOx-Gly)] displayed a ring closure, yield of all isomers in data set [2] (from CC(C)C[C@H](NC(=O)[C@@H](N)Cc1c[nH]c2ccccc12)C(=O)N[C@@H](C)C1(NCC(=O)O)COC1, DEPBT, 1.0 mM, 48.0 h) of 50%. With `CC(C)C[C@@H]1NC(=O)[C@H](Cc2c[nH]c3ccccc23)NC(=O)CNC2(CNC1=O)COC2` [Cyclo(Trp-Leu-GOx-Gly)], the ring closure, yield of all isomers in data set [2] (from CC(C)C[C@H](NC(=O)[C@@H](N)Cc1c[nH]c2ccccc12)C(=O)NCC1(NCC(=O)O)COC1, DEPBT/DIPEA, 1.0 mM, 48.0 h) was found to be 65%. In turn, `CC(C)C[C@@H]1NC(=O)[C@H](Cc2c[nH]c3ccccc23)NC(=O)CNC(=O)CNC1=O` [Cyclo(Trp-Leu-Gly-Gly)] displayed a ring closure, yield of all isomers in data set [2] (from CC(C)C[C@H](NC(=O)[C@@H](N)Cc1c[nH]c2ccccc12)C(=O)NCC(=O)NCC(=O)O, PyBOP/DIPEA, 1.0 mM, 48.0 h) of 15%.

For the compound `CC(C)C[C@@H]1NC(=O)[C@H](Cc2ccccc2)NC(=O)[C@H]([C@@H](C)OC(C)(C)C)NC2(CNC(=O)[C@H](C(C)C)NC(=O)[C@H](Cc3ccc(OC(C)(C)C)cc3)NC1=O)CN(C(=O)OC(C)(C)C)C2` [Cyclo-(Leu-Tyr(^tBu)-Val-GAz(Boc)-Thr(^tBu)-Phe)], the ring closure, yield of all isomers in data set [2] (from CC(C)C[C@H](N)C(=O)N[C@@H](Cc1ccc(OC(C)(C)C)cc1)C(=O)N[C@H](C(=O)NCC1(N[C@H](C(=O)N[C@@H](Cc2ccccc2)C(=O)O)[C@@H](C)OC(C)(C)C)CN(C(=O)OC(C)(C)C)C1)C(C)C, DEPBT, 5.0 mM, 48.0 h) came out at 57%. As for `C[C@@H](OC(C)(C)C)[C@@H]1NC2(CNC(=O)[C@H](CCC(=O)OC(C)(C)C)NC(=O)[C@H](Cc3ccccc3)NC(=O)CNC1=O)CN(C(=O)OC(C)(C)C)C2` [Cyclo-(Phe-Glu(^tBu)-GAz(Boc)-Thr(^tBu)-Gly)], the ring closure, yield of all isomers in data set [2] (from C[C@@H](OC(C)(C)C)[C@H](NC1(CNC(=O)[C@H](CCC(=O)OC(C)(C)C)NC(=O)[C@@H](N)Cc2ccccc2)CN(C(=O)OC(C)(C)C)C1)C(=O)NCC(=O)O, DEPBT, 5.0 mM, 68.0 h) turned out to be 73%. Turning to Cyclo(Ala-GOx-Ala-Tyr-Leu), the ring closure, isolated yield in data set [3] (amide bond, 15-membered ring, DEPBT/DIEA, DMF, 1.0 mM) was 54%.

With Cyclo(Ala-Gly-Ala-Tyr-Leu), the ring closure, isolated yield in data set [3] (amide bond, 15-membered ring, DEPBT/DIPEA, DMF, 1.0 mM) is 42%. Turning to Cyclo(Ala-Trp-GOx-Gly-Leu), in data set [4] (amide bond, 15-membered ring, DEPBT/DIPEA, DMF, 1.0 mM, with chain assembly), the ring closure, yield after HPLC came to 13%. Take Cyclo(Boc-Cys-GOx-Cys-OtBu): the ring closure, isolated yield in data set [3] (disulfide bond, 11-membered ring, I2, MeOH, 5.0 mM) came to 64%. On to Cyclo(H-CVs-Asn-GOx-Arg-CVs-OH), for which the ring closure, yield after HPLC in data set [4] (disulfide bond, 17-membered ring, I2, MeOH, 10.0 mM, 2 steps) is 32%. Cyclo(Leu-GOx-Gly-Trp(Boc)) registered a ring closure, isolated yield in data set [3] (amide bond, 12-membered ring, DEPBT/DIPEA, DMF, 1.0 mM, with chain assembly) of 39%. Cyclo(Met-Ala-Trp-GOx-Gly-Leu) gave a ring closure, yield after HPLC in data set [4] (amide bond, 18-membered ring, DEPBT/DIPEA, DMF, 1.0 mM, with chain assembly) of 7%. For Cyclo(Ser-Met-Ala-Trp-GOx-Gly-Leu), the ring closure, yield after HPLC in data set [4] (amide bond, 21-membered ring, DEPBT/DIPEA, DMF, 1.0 mM, with chain assembly) came to 13%. For Cyclo(Trp-Leu-AOx-Gly), the ring closure, isolated yield in data set [3] (setting [5]) is 49% and 50%. Cyclo(Trp-Leu-GOx-Gly) had a ring closure, isolated yield in data set [3] (amide bond, 12-membered ring, DEPBT/DIEA, DMF, 1.0 mM) of 65%.

In data set [3] (amide bond, 12-membered ring, PyBOP/DIEA, DMF, 1.0 mM), Cyclo(Trp-Leu-Gly-Gly) displayed a ring closure, isolated yield of 15%.

Compound Cyclo-((D)Pro-Leu-GAz(Boc)-Gly) gave a ring closure, isolated yield in data set [3] (setting [5]) of 79%. As for “Cyclo-(Leu-Tyr(^tBu)-Val-GAz(Boc)-Thr(^tBu)-Phe)”, the ring closure, isolated yield in data set [3] (amide bond, 18-membered ring, DEPBT/DIPEA, DMF, 5.0 mM) amounted to 57%.

With “Cyclo-(Phe-Glu(^tBu)-GAz(Boc)-Thr(^tBu)-Gly)”, the ring closure, isolated yield in data set [3] (amide bond, 15-membered ring, DEPBT/DIPEA, DMF, 5.0 mM) was 73%.
